Measured values published in PubChem BioAssay (NCI).
“And” between values parts separate entries of the source, which are not always exact repeats. Equal entries are not always repeated.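 48-hour exposure; five concentrations; linearly interpolated endpoints. GI50 = concentration required for 50% inhibition of growth. TGI denotes the concentration required for complete inhibition of growth.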

Key:
Assay in all cases: NCI-60 cell line screen, 48 h
[1] = test system: HOP-62 NSCLC
[2] = test system: HCT-15 colon
[3] = test system: HL-60(TB) leukemia
[4] = test system: KM20L2 colon
[5] = test system: UACC-257 melanoma
[6] = test system: NCI-H522 lung
[7] = test system: OVCAR-5 ovarian
[8] = test system: M19-MEL melanoma
[9] = test system: SF-539 CNS
[10] = test system: RXF 393 renal

SMILES | TGI [1] | TGI [2] [µM] | TGI [3] [µM] | TGI [4] [µM] | TGI [5] [µM] | TGI [6] [µM] | TGI [7] [µM] | TGI [8] [µM] | TGI [9] [µM] | GI50 [3] [µM] | TGI [10] [µM] | GI50 [6] [µM] | GI50 [7] [µM] | GI50 [8] [µM] | GI50 [9] [µM] | GI50 [1] [µM] | GI50 [2] [µM] | GI50 [10] [µM] | GI50 [5] [µM]
COC(=O)c1ccc(C(=O)OC)c2nc3cc(Cl)ccc3nc12 | > 100 µM | > 100 | > 100 | > 100 | > 100 | > 100 | > 100 | > 100 | > 100 |  |  |  |  |  |  |  |  |  | 
COc1cc(C2c3cc4c(cc3[C@@H](Nc3ccc([N+](=O)[O-])cc3)C3COC(=O)[C@H]23)OCO4)cc(OC)c1O (stereo partly drawn) | 0.947 µM and 2.07 µM | 19.6 |  | 14.8 | 34.5 | 5.42 | 13.6 | 22.8 | 3.79 | 0.0114 | 6.93 | 0.733 | 0.722 | 0.942 | 0.734 |  |  |  | 
O=c1cc(-c2ccccc2)oc2cc(OCCCCCN3CCOCC3)cc(O)c12 | 23.1 µM | > 100 | > 100 |  | > 100 | 94.9 | 95.3 |  | > 100 | 71 | 46.1 | 31 | 18.1 |  | > 100 | 10.2 | 42 | 16.8 | > 100
COc1cc2c(NC3CCN(C(C)C)CC3)nc(C3CCCCC3)nc2cc1OCCCN1CCCC1 | 10.1 µM | 23.9 | 10.9 |  | 3.25 | 8.53 | 22.2 |  | 3.48 | 3.03 | 4.27 | 2.95 | 8.87 |  | 1.79 | 3.22 | 9.82 | 1.8 | 1.67
O=C(N/N=C/c1cc(Cl)ccc1O)c1ccccc1Nc1ccnc(C(F)(F)F)c1 | 3.65 µM | 13.6 | 0.937 |  | 7.54 | 6.53 | 25.6 |  | 8.19 | 0.225 | 14.1 | 0.689 | 1.67 |  | 0.721 | 0.334 | 0.152 | 0.517 | 1.43
O=C(COC(=O)c1cccc2c(=O)c3ccccc3[nH]c12)Nc1ccc(Cl)cc1 | 78.5 µM |  | > 100 | > 100 | > 100 | > 100 |  | > 100 | > 100 |  | 66 |  |  |  |  |  |  |  | 
CCOC(=O)/C(C#N)=C\Sc1ccccc1 | 86.5 µM |  | 45.6 | 51.9 | > 100 | 11.3 | 58.6 | 63.8 | 30.1 |  | 35.1 |  |  |  |  |  |  |  | 
